The values below come from patent US6608082B1, “Treatment of erectile dysfunction using isoquinoline compound melanocortin receptor ligands” (Lion Bioscience AG, priority 1998, dated 2003).

One assay deals with T1, MCR-1 (Homo sapiens, UniProt Q01726).
T1 construct: expressed in transfected cells; host or cells: HEK 293
In words: Melanocortin receptor binding assay, competition with 125I-HP 467, HEK 293 cells expressing hMCR-1. Particulars: read-out: MC-1 IC50. The gist of the method:
(§1)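 Test compounds compete on intact HEK 293 cells carrying hMCR-1 (2×10^4 per tube) or hMCR-4 (4×10^3 per tube), suspended in PBS, 10% calf serum, 1 mM CaCl2.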

The target of the next assay is T2, MCR-4 (Homo sapiens, UniProt P32245).
T2 construct: expressed in transfected cells; host or cells: HEK 293
T2 sequence (P32245 whole entry): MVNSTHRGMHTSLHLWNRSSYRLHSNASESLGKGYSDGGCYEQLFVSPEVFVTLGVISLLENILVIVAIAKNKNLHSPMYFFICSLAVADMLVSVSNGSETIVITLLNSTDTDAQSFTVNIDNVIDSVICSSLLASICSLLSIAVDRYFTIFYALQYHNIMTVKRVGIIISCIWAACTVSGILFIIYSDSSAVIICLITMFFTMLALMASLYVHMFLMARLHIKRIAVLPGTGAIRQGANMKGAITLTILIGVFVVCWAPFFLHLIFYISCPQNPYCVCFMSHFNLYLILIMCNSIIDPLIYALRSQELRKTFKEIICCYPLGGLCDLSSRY
In words: Melanocortin receptor binding assay, competition with 125I-HP 467, HEK 293 cells expressing hMCR-4. The note with it: for IC50: read-out: MC-4 IC50. The gist of the method: as §1

Where [1] appears, read: TRG 2406 and TRG 2407 libraries, inhibition of binding of 125I-HP 467.
Setting [2] is: TRG 2408 and TRG 2409 libraries, inhibition of 125I-HP 467 binding.

Where two headings read alike, the source gives them in different places.

T1 sequence (Q01726 whole entry): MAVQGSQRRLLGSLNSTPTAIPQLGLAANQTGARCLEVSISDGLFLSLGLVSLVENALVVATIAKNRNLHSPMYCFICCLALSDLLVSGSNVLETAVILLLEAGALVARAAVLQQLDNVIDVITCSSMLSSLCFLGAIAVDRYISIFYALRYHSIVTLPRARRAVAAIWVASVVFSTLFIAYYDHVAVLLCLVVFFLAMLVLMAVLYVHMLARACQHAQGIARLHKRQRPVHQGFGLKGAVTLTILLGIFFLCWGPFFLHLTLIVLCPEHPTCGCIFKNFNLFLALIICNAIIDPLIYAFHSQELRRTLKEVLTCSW

As to `CNC(CN)CCCCN1Cc2ccccc2C(CNCc2ccc(OC)cc2)C1c1ccc(Cl)cc1Cl` (stereo not shown) [TRG 2407-19], the concentration for half-maximal inhibition (IC50) at MCR-1 (setting [1]) worked out at 2.29 µM; on MCR-4 (setting [1]), 2.04 µM.
`CNC(CN)CCCCN1Cc2ccccc2C(CNCc2ccc(C(F)(F)F)cc2)C1c1ccc(Cl)cc1Cl` (stereo not shown) [TRG 2407-20]: the concentration for half-maximal inhibition (IC50) was determined as 3.78 µM on MCR-1 (setting [1]) and 3.49 µM on MCR-4 (setting [1]).
In the same order, the values of `CNC(CN)CCCCN1Cc2ccccc2C(CNCCc2ccccc2)C1c1ccc(Cl)cc1Cl` (stereo not shown) [TRG 2407-21] are 1.03 µM and 0.36 µM.
In the same order, the values of `CNC(CN)CCCCN1Cc2ccccc2C(CNCCc2ccc(OC)cc2)C1c1ccc(Cl)cc1Cl` (stereo not shown) [TRG 2407-25] are 1.47 µM and 0.62 µM.
The like results for `CNC(CN)CCCCN1Cc2ccccc2C(CNCCCc2ccccc2)C1c1ccc(Cl)cc1Cl` (stereo not shown) [TRG 2407-26] were, in that order, 0.7 µM and 0.83 µM.
Regarding `CNC(CN)CCCCN1Cc2ccccc2C(CNC2CCCC2)C1c1ccc(Cl)cc1Cl` (stereo not shown) [TRG 2407-27], the IC50 on MCR-1 (setting [1]) amounted to 0.57 µM; at MCR-4 (setting [1]) it was 0.53 µM.
In the same order, the values of `CNC(CN)CCCCN1Cc2ccccc2C(CNC(C)C)C1c1ccc(-c2ccccc2)cc1` (stereo not shown) [TRG 2407-28] are 0.31 µM and 3.6 µM.
The like results for `CNC(CN)CCCCN1Cc2ccccc2C(CNC2CCCCCC2)C1c1ccc(Cl)cc1Cl` (stereo not shown) [TRG 2407-29] were, in that order, 0.64 µM and 0.77 µM.
As to `CNC(CN)CCCCN1Cc2ccccc2C(CN(C)C2CCCCC2)C1c1ccc(Cl)cc1Cl` (stereo not shown) [TRG 2407-30], the half-inhibitory concentration (IC50) at MCR-1 (setting [1]) came out at 3.15 µM; at MCR-4 (setting [1]), 2.1 µM.
For the compound `CNC(CN)CCCCN1Cc2ccccc2C(CN2CCCCC2)C1c1ccc(Cl)cc1Cl` (stereo not shown) [TRG 2407-32], the IC50 on MCR-1 (setting [1]) was 3.29 µM; at MCR-4 (setting [1]), 2.14 µM.
The like results for `CNC(CN)CCCCN1Cc2ccccc2C(CN2CCOCC2)C1c1ccc(Cl)cc1Cl` (stereo not shown) [TRG 2407-33] were, in that order, 6.9 µM and 6.02 µM.
As to `CCN(CC)CC1c2ccccc2CN(CCCCC(CN)NC)C1c1ccc(Cl)cc1Cl` (stereo not shown) [TRG 2407-35], the 50% inhibitory concentration (IC50) stood at 6.52 µM on MCR-1 (setting [1]) and 3.41 µM at MCR-4 (setting [1]).
The like results for `C=CCNCC1c2ccccc2CN(CCCCC(CN)NC)C1c1ccc(Cl)cc1Cl` (stereo not shown) [TRG 2407-36] were, in that order, 0.43 µM and 0.46 µM.
Consider `CNC(CN)CCCCN1Cc2ccccc2C(CNC(C)C)C1c1ccc(Cl)cc1Cl` (stereo not shown) [TRG 2407-37], for which the results for the IC50 on MCR-1 (setting [1]) and on MCR-4 (setting [1]) were 0.91 µM and 0.54 µM, respectively.
In the same order, the values of `CNC(CN)CCCCN1Cc2ccccc2C(CO)C1c1ccc(Cl)cc1Cl` (stereo not shown) [TRG 2407-40] are 4.74 µM and 4.94 µM.
For `CCNc1ccc(C2C(CNc3ccccc3)c3ccccc3CN2CCCCC(CN)NC)cc1` (stereo not shown) [TRG 2407-41], the half-inhibitory concentration (IC50) on MCR-1 (setting [1]) came out at 5.87 µM; on MCR-4 (setting [1]), 17 µM.
The like results for `CCNc1ccc(C2C(CN(C)c3ccccc3)c3ccccc3CN2CCCCC(CN)NC)cc1` (stereo not shown) [TRG 2407-42] were, in that order, 4.23 µM and 7.9 µM.
Turning to `CCNc1ccc(C2C(CNc3ccccc3Cl)c3ccccc3CN2CCCCC(CN)NC)cc1` (stereo not shown) [TRG 2407-43], the half-maximal inhibitory concentration (IC50) on MCR-1 (setting [1]) came to 7.07 µM; on MCR-4 (setting [1]), 11.2 µM.
In the same order, the values of `CCNc1ccc(C2C(CNc3ccccc3OC)c3ccccc3CN2CCCCC(CN)NC)cc1` (stereo not shown) [TRG 2407-44] are 1.15 µM and 10.4 µM.
Take `CCNc1ccc(C2C(CNc3cccc(Cl)c3)c3ccccc3CN2CCCCC(CN)NC)cc1` (stereo not shown) [TRG 2407-45]: the half-maximal inhibitory concentration (IC50) stood at 7.91 µM on MCR-1 (setting [1]) and 11 µM on MCR-4 (setting [1]).
As for `CCNc1ccc(C2C(CNc3cccc(OCC)c3)c3ccccc3CN2CCCCC(CN)NC)cc1` (stereo not shown) [TRG 2407-46], the IC50 on MCR-1 (setting [1]) turned out to be 1.63 µM; on MCR-4 (setting [1]), 16.4 µM.
As for `CCNc1ccc(C2C(CNc3ccc(Cl)cc3)c3ccccc3CN2CCCCC(CN)NC)cc1` (stereo not shown) [TRG 2407-48], the IC50 on MCR-1 (setting [1]) amounted to 4.48 µM; at MCR-4 (setting [1]), 10.8 µM.
As to `CCNc1ccc(C2C(CNc3ccc(OC)cc3)c3ccccc3CN2CCCCC(CN)NC)cc1` (stereo not shown) [TRG 2407-49], the 50% inhibitory concentration (IC50) on MCR-1 (setting [1]) came to 2.36 µM. The “MC-4 IC50” value at MCR-4 (setting [1]) is recorded as “no fit”.
For the compound `CCNc1ccc(C2C(CNCc3ccccc3)c3ccccc3CN2CCCCC(CN)NC)cc1` (stereo not shown) [TRG 2407-50], the IC50 was found to be 0.35 µM at MCR-1 (setting [1]) and 9.1 µM at MCR-4 (setting [1]).
With `CCNc1ccc(C2C(CN(C)Cc3ccccc3)c3ccccc3CN2CCCCC(CN)NC)cc1` (stereo not shown) [TRG 2407-51], the IC50 on MCR-1 (setting [1]) was found to be 2.16 µM; on MCR-4 (setting [1]), 13.5 µM.
In the same order, the values of `CCNc1ccc(C2C(CNCc3ccccc3Cl)c3ccccc3CN2CCCCC(CN)NC)cc1` (stereo not shown) [TRG 2407-52] are 0.44 µM and 1.56 µM.
The like results for `CCNc1ccc(C2C(CNCc3ccccc3C(F)(F)F)c3ccccc3CN2CCCCC(CN)NC)cc1` (stereo not shown) [TRG 2407-53] were, in that order, 1.27 µM and 0.79 µM.
The like results for `CCNc1ccc(C2C(CNCc3ccccc3OCC)c3ccccc3CN2CCCCC(CN)NC)cc1` (stereo not shown) [TRG 2407-55] were, in that order, 0.19 µM and 14.9 µM.
Regarding `CCNc1ccc(C2C(CNC3CCCCC3)c3ccccc3CN2CCCCC(N)CN)cc1` (stereo not shown) [TRG 2408-5], the IC50 on MCR-1 (setting [2]) was found to be 1.66 µM; on MCR-4 (setting [2]), 31.8 µM.
For `CCNc1ccc(C2C(CNC3CCCCC3)c3ccccc3CN2CCCC[C@@H](CN)NCCc2ccccc2)cc1` (stereo partly shown) [TRG 2408-6], the half-inhibitory concentration (IC50) at MCR-1 (setting [2]) is 0.61 µM; on MCR-4 (setting [2]) it was 7.16 µM.
In the same order, the values of `CCNc1ccc(C2C(CNC3CCCCC3)c3ccccc3CN2CCCCC(CN)NCCNC)cc1` (stereo not shown) [TRG 2408-8] are 2.31 µM and 43.3 µM.
In the same order, the values of `NCC(N)CCCCN1Cc2ccccc2C(CNC2CCCCC2)C1c1ccc(Cl)cc1Cl` (stereo not shown) [TRG 2408-13] are 1.72 µM and 1.58 µM.
In the same order, the values of `NCC(CCCCN1Cc2ccccc2C(CNC2CCCCC2)C1c1ccc(Cl)cc1Cl)NCCc1ccccc1` (stereo not shown) [TRG 2408-14] are 2.11 µM and 5.52 µM.
`NCCNC(CN)CCCCN1Cc2ccccc2C(CNC2CCCCC2)C1c1ccc(Cl)cc1Cl` (stereo not shown) [TRG 2408-15]: the IC50 worked out at 0.76 µM at MCR-1 (setting [2]) and 6.3 µM on MCR-4 (setting [2]).
The like results for `CNCCNC(CN)CCCCN1Cc2ccccc2C(CNC2CCCCC2)C1c1ccc(Cl)cc1Cl` (stereo not shown) [TRG 2408-16] were, in that order, 1.79 µM and 6.11 µM.
The like results for `NCC(N)CCCCN1Cc2ccccc2C(CNC2CCCCC2)C1c1ccc(-c2ccccc2)cc1` (stereo not shown) [TRG 2408-21] were, in that order, 1.73 µM and 17.4 µM.
The like results for `NCC(CCCCN1Cc2ccccc2C(CNC2CCCCC2)C1c1ccc(-c2ccccc2)cc1)NCCc1ccccc1` (stereo not shown) [TRG 2408-22] were, in that order, 2.77 µM and 11.4 µM.
Regarding `NCCNC(CN)CCCCN1Cc2ccccc2C(CNC2CCCCC2)C1c1ccc(-c2ccccc2)cc1` (stereo not shown) [TRG 2408-23], the half-inhibitory concentration (IC50) was 0.82 µM on MCR-1 (setting [2]) and 20.5 µM on MCR-4 (setting [2]).
In the same order, the values of `CCNc1ccc(C2C(CNC3CCCCC3)c3ccccc3CN2CCCCC(CN)NCCc2ccccc2)cc1` (stereo not shown) [TRG 2408-32] are 1.15 µM and 9.44 µM.
In the same order, the values of `CCNc1ccc(C2C(CNC3CCCCC3)c3ccccc3CN2CCCCC(CN)NCCN)cc1` (stereo not shown) [TRG 2408-33] are 1.06 µM and 38.7 µM.
The like results for `CCNc1ccc(C2C(CNC3CCCCC3)c3ccccc3CN2CCCCC(CN)NCCNC)cc1` (stereo not shown) [TRG 2408-34] were, in that order, 2.14 µM and 33.6 µM.
On to `CN[C@@H](CN)CCCCN1Cc2ccccc2C(CNC2CCCCC2)C1c1ccc(Cl)cc1Cl` (stereo partly shown) [TRG 2408-40], for which the results for the IC50 at MCR-1 (setting [2]) and at MCR-4 (setting [2]) were 2.43 µM and 8.28 µM, respectively.
The like results for `NC[C@H](N)CCCCN1Cc2ccccc2C(CNC2CCCCC2)C1c1ccc(Cl)cc1Cl` (stereo partly shown) [TRG 2408-41] were, in that order, 1.03 µM and 3.88 µM.
In the case of `NC[C@@H](CCCCN1Cc2ccccc2C(CNC2CCCCC2)C1c1ccc(Cl)cc1Cl)NCCc1ccccc1` (stereo partly shown) [TRG 2408-42], the IC50 at MCR-1 (setting [2]) was determined as 1.93 µM; at MCR-4 (setting [2]), 4.24 µM.
As for `NCCNC(CN)CCCCN1Cc2ccccc2C(CNC2CCCCC2)C1c1ccc(Cl)cc1Cl` (stereo not shown) [TRG 2408-43], the IC50 on MCR-1 (setting [2]) worked out at 1.63 µM; at MCR-4 (setting [2]) it was 7.49 µM.
Consider `CNCCNC(CN)CCCCN1Cc2ccccc2C(CNC2CCCCC2)C1c1ccc(Cl)cc1Cl` (stereo not shown) [TRG 2408-44], for which the concentration for half-maximal inhibition (IC50) at MCR-1 (setting [2]) came to 1.27 µM; on MCR-4 (setting [2]) it was 5.06 µM.
In the same order, the values of `CNC(CN)CCCCN1Cc2ccccc2C(CNC2CCCCC2)C1c1ccc(-c2ccccc2)cc1` (stereo not shown) [TRG 2408-50] are 1.55 µM and 13.3 µM.
The like results for `NC[C@H](N)CCCCN1Cc2ccccc2C(CNC2CCCCC2)C1c1ccc(-c2ccccc2)cc1` (stereo partly shown) [TRG 2408-51] were, in that order, 3.19 µM and 29.3 µM.
In the same order, the values of `NCC(CCCCN1Cc2ccccc2C(CNC2CCCCC2)C1c1ccc(-c2ccccc2)cc1)NCCc1ccccc1` (stereo not shown) [TRG 2408-52] are 3.69 µM and 12.3 µM.
Regarding `NCCNC(CN)CCCCN1Cc2ccccc2C(CNC2CCCCC2)C1c1ccc(-c2ccccc2)cc1` (stereo not shown) [TRG 2408-53], the values for the 50% inhibitory concentration (IC50) on MCR-1 (setting [2]) and at MCR-4 (setting [2]) were 1 µM and 14.8 µM, respectively.
As to `CNCCN[C@@H](CN)CCCCN1Cc2ccccc2C(CNC2CCCCC2)C1c1ccc(-c2ccccc2)cc1` (stereo partly shown) [TRG 2408-54], the IC50 at MCR-1 (setting [2]) came out at 0.61 µM; on MCR-4 (setting [2]), 26.8 µM.
In the same order, the values of `CCNc1ccc(C2C(CNC3CCCCC3)c3ccccc3CN2CCCC(CN)NC)cc1` (stereo not shown) [TRG 2408-60] are 0.69 µM and 20.7 µM.
In the same order, the values of `CCNc1ccc(C2C(CNC3CCCCC3)c3ccccc3CN2CCCC(N)CN)cc1` (stereo not shown) [TRG 2408-61] are 0.69 µM and 35.2 µM.
